Data reported in the NIST ThermoML archive (doi:10.1021/je0604378).
Numbers after ± are expanded uncertainties.

Conditions: Liquid; for speed of sound: Pulse-echo method; for mass density: 101.33 kPa

Molecule `CCCCCCCCCO` [nonan-1-ol] has a speed of sound (292.86 K, 45590 kPa) of 1579.5 ± 1.9 m/s, a speed of sound (292.86 K, 91180 kPa) of 1731.8 ± 2.3 m/s and a speed of sound (292.86 K, 101320 kPa) of 1762 ± 2.4 m/s. For the same molecule, the speed of sound (292.87 K, 15200 kPa) was 1456.7 ± 1.7 m/s, the speed of sound (292.87 K, 30390 kPa) was 1520.8 ± 1.8 m/s and the speed of sound (292.87 K, 60790 kPa) was 1634 ± 2.2 m/s. The speed of sound (292.87 K, 75990 kPa) was 1684.4 ± 2.2 m/s, the speed of sound (292.88 K, 100 kPa) was 1382.8 ± 1.5 m/s and the mass density (293.15 K) was 827.66 ± 0.93 kg/m3. It also gave a speed of sound (297.95 K, 60790 kPa) of 1620 ± 2.1 m/s, a speed of sound (297.95 K, 91180 kPa) of 1718.7 ± 2.3 m/s and a speed of sound (297.95 K, 101320 kPa) of 1749.2 ± 2.4 m/s. It also gave a speed of sound (297.96 K, 15200 kPa) of 1440.2 ± 1.7 m/s, a speed of sound (297.96 K, 30390 kPa) of 1505.4 ± 1.8 m/s and a speed of sound (297.96 K, 45590 kPa) of 1564.5 ± 1.8 m/s. The speed of sound (297.96 K, 75990 kPa) was 1670.7 ± 2.2 m/s, the mass density (298.15 K) was 824.239 ± 0.94 kg/m3 and the speed of sound (298.18 K, 100 kPa) was 1364.6 ± 1.5 m/s. The speed of sound (302.93 K, 45590 kPa) was 1550.1 ± 1.8 m/s, the speed of sound (302.93 K, 60790 kPa) was 1606 ± 2.1 m/s and the speed of sound (302.93 K, 75990 kPa) was 1657.6 ± 2.2 m/s. For the same molecule, the speed of sound (302.93 K, 91180 kPa) was 1705.8 ± 2.3 m/s, the speed of sound (302.93 K, 101320 kPa) was 1736.7 ± 2.4 m/s and the speed of sound (302.94 K, 15200 kPa) was 1424.3 ± 1.7 m/s. For the same molecule, the speed of sound (302.94 K, 30390 kPa) was 1490.2 ± 1.8 m/s, the speed of sound (303.16 K, 100 kPa) was 1347.5 ± 1.5 m/s and the mass density (303.16 K) was 820.8 ± 0.95 kg/m3. It also gave a speed of sound (307.91 K, 30390 kPa) of 1475.5 ± 1.8 m/s, a speed of sound (307.91 K, 45590 kPa) of 1536 ± 1.8 m/s and a speed of sound (307.91 K, 60790 kPa) of 1592.4 ± 2.1 m/s. It also gave a speed of sound (307.92 K, 15200 kPa) of 1408.5 ± 1.7 m/s, a speed of sound (307.92 K, 75990 kPa) of 1644.7 ± 2.2 m/s and a speed of sound (307.92 K, 91180 kPa) of 1693.2 ± 2.3 m/s. The speed of sound (307.92 K, 101320 kPa) was 1724.3 ± 2.3 m/s, the speed of sound (308.14 K, 100 kPa) was 1330.6 ± 1.5 m/s and the mass density (308.15 K) was 817.345 ± 0.96 kg/m3. The speed of sound (312.91 K, 15200 kPa) was 1392.8 ± 1.7 m/s, the speed of sound (312.91 K, 30390 kPa) was 1460.8 ± 1.7 m/s and the speed of sound (312.91 K, 45590 kPa) was 1522.2 ± 1.8 m/s. It also gave a speed of sound (312.91 K, 60790 kPa) of 1578.9 ± 2.1 m/s, a speed of sound (312.91 K, 75990 kPa) of 1632 ± 2.2 m/s and a speed of sound (312.91 K, 91180 kPa) of 1681.1 ± 2.3 m/s. The speed of sound (312.91 K, 101320 kPa) was 1712.3 ± 2.3 m/s, the speed of sound (313.11 K, 100 kPa) was 1313.8 ± 1.4 m/s and the mass density (313.15 K) was 813.868 ± 0.97 kg/m3. The mass density (318.15 K) was 810.376 ± 0.98 kg/m3, the speed of sound (318.29 K, 100 kPa) was 1296.3 ± 1.4 m/s and the speed of sound (318.38 K, 45590 kPa) was 1507.3 ± 1.8 m/s. It also gave a speed of sound (318.38 K, 60790 kPa) of 1564.6 ± 2.1 m/s, a speed of sound (318.38 K, 75990 kPa) of 1618.3 ± 2.2 m/s and a speed of sound (318.38 K, 91180 kPa) of 1667.8 ± 2.3 m/s. For the same molecule, the speed of sound (318.38 K, 101320 kPa) was 1699.1 ± 2.3 m/s, the speed of sound (318.39 K, 15200 kPa) was 1375.9 ± 1.7 m/s and the speed of sound (318.39 K, 30390 kPa) was 1444.8 ± 1.7 m/s. For the same molecule, the speed of sound (318.39 K, 45590 kPa) was 1507.3 ± 1.8 m/s and the speed of sound (318.39 K, 91180 kPa) was 1667.8 ± 2.3 m/s.

`CCCCCCCCO` [octan-1-ol] showed a speed of sound (292.77 K, 15230 kPa) of 1440.3 ± 1.7 m/s, a speed of sound (292.77 K, 30430 kPa) of 1505.2 ± 1.8 m/s and a speed of sound (292.77 K, 76010 kPa) of 1670.1 ± 2.2 m/s. The speed of sound (292.78 K, 60800 kPa) was 1619.3 ± 2.1 m/s, the speed of sound (292.79 K, 91200 kPa) was 1717.8 ± 2.3 m/s and the speed of sound (292.83 K, 45610 kPa) was 1564.1 ± 1.8 m/s. The speed of sound (292.83 K, 96120 kPa) was 1733 ± 2.3 m/s, the speed of sound (292.92 K, 100 kPa) was 1365.2 ± 1.5 m/s and the mass density (293.15 K) was 825.048 ± 0.94 kg/m3. It also gave a speed of sound (298.07 K, 76040 kPa) of 1656.5 ± 2.2 m/s, a speed of sound (298.07 K, 91190 kPa) of 1703.9 ± 2.3 m/s and a speed of sound (298.07 K, 97840 kPa) of 1724.3 ± 2.3 m/s. The speed of sound (298.09 K, 45610 kPa) was 1548.8 ± 1.8 m/s, the speed of sound (298.09 K, 60840 kPa) was 1604.6 ± 2.1 m/s and the speed of sound (298.13 K, 30410 kPa) was 1488.8 ± 1.8 m/s. It also gave a mass density (298.15 K) of 821.636 ± 0.95 kg/m3, a speed of sound (298.19 K, 15200 kPa) of 1422.6 ± 1.7 m/s and a speed of sound (298.2 K, 100 kPa) of 1347.1 ± 1.5 m/s. It also gave a mass density (303.15 K) of 818.173 ± 0.96 kg/m3, a speed of sound (303.15 K, 76000 kPa) of 1642.8 ± 2.2 m/s and a speed of sound (303.16 K, 91200 kPa) of 1691.2 ± 2.3 m/s. The speed of sound (303.18 K, 100 kPa) was 1330.2 ± 1.5 m/s, the speed of sound (303.2 K, 101340 kPa) was 1722.3 ± 2.3 m/s and the speed of sound (303.26 K, 60820 kPa) was 1590.2 ± 2.1 m/s. It also gave a speed of sound (303.27 K, 15200 kPa) of 1406.2 ± 1.7 m/s, a speed of sound (303.27 K, 45600 kPa) of 1533.9 ± 1.8 m/s and a speed of sound (303.28 K, 30410 kPa) of 1473.3 ± 1.8 m/s. The speed of sound (308.12 K, 91200 kPa) was 1679.2 ± 2.3 m/s, the speed of sound (308.12 K, 101320 kPa) was 1710.3 ± 2.3 m/s and the mass density (308.15 K) was 814.675 ± 0.97 kg/m3. It also gave a speed of sound (308.16 K, 100 kPa) of 1313.3 ± 1.4 m/s, a speed of sound (308.16 K, 91210 kPa) of 1679.1 ± 2.3 m/s and a speed of sound (308.17 K, 30400 kPa) of 1458.8 ± 1.7 m/s. It also gave a speed of sound (308.17 K, 76020 kPa) of 1630 ± 2.2 m/s, a speed of sound (308.18 K, 45600 kPa) of 1520.3 ± 1.8 m/s and a speed of sound (308.18 K, 60790 kPa) of 1576.8 ± 2.1 m/s. The speed of sound (308.19 K, 15210 kPa) was 1390.7 ± 1.7 m/s, the speed of sound (313.15 K, 100 kPa) was 1296.5 ± 1.4 m/s and the mass density (313.15 K) was 811.171 ± 0.98 kg/m3. The speed of sound (313.22 K, 91200 kPa) was 1666.8 ± 2.3 m/s, the speed of sound (313.22 K, 101340 kPa) was 1697.8 ± 2.3 m/s and the speed of sound (313.23 K, 76000 kPa) was 1616.6 ± 2.2 m/s. For the same molecule, the speed of sound (313.26 K, 15200 kPa) was 1375.1 ± 1.7 m/s, the speed of sound (313.26 K, 30390 kPa) was 1443.9 ± 1.7 m/s and the speed of sound (313.26 K, 45590 kPa) was 1506.1 ± 1.8 m/s. It also gave a speed of sound (313.28 K, 60790 kPa) of 1563.5 ± 2.1 m/s, a mass density (318.15 K) of 807.654 ± 0.99 kg/m3 and a speed of sound (318.33 K, 100 kPa) of 1279.2 ± 1.4 m/s. It also gave a speed of sound (318.82 K, 45600 kPa) of 1491 ± 1.8 m/s, a speed of sound (318.82 K, 60790 kPa) of 1549.2 ± 2.1 m/s and a speed of sound (318.82 K, 75990 kPa) of 1603.4 ± 2.2 m/s. It also gave a speed of sound (318.82 K, 101330 kPa) of 1684.9 ± 2.3 m/s, a speed of sound (318.83 K, 15200 kPa) of 1357.8 ± 1.7 m/s and a speed of sound (318.83 K, 91180 kPa) of 1653.7 ± 2.3 m/s. It also gave a speed of sound (318.84 K, 30390 kPa) of 1427.8 ± 1.7 m/s.
